These are literature values, as cited in patent US20170368150A1, “METHODS OF TREATING PULMONARY SARCOIDOSIS” (GOTHAM BIOPHARMACEUTICALS, INC., priority 2014, published 2017).

For one data set, the system named is sarcoidosis patients. The following applies: human, in vivo.
In data set [1] the test system is people with uveal sarcoidosis. The following applies: in vivo.
The subject of data set [2] is persons with pulmonary sarcoidosis. The following applies: clinical trials.

Turning to Adalimumab, the “fraction of sarcoidosis patients with beneficial response” value in the data set with sarcoidosis patients is reported as “about half”. For Etanercept, the “efficacy in uveal sarcoidosis” value in data set [1] is “failed to demonstrate any significant efficacy”. In the case of Infliximab, the “efficacy in pulmonary sarcoidosis” value in data set [2] is recorded as “some success”.

Turning to golimumab, the “efficacy in pulmonary sarcoidosis” value in data set [2] is given as “failed to show any benefit”.
